# Assay results as given in publication PMC7007416 (Analytical and Bioanalytical Chemistry, 2019).
# Legend:
# [1] = Permeability in static Transwell system; settings: human
# Description: (§1) The human colonic adenocarcinoma Caco-2 cell line was obtained from the American Type Culture Collection (ATCC, Manassas, VA, USA), and the human colon adenocarcinoma mucus-secreting HT29-MTX-E12 cell line was obtained from the European Collection of Authenticated Cell Cultures (ECACC, Salisbury, UK). Caco-2 cells were used at passage numbers 29–40, and HT29-MTX-E12 cells were used at passage numbers 52–70 for all experiments. Cells were cultured in DMEM containing 10% FBS, 1% NEAA and 1% penicillin-streptomycin and maintained at 37 °C in a 5% CO2-humidified air atmosphere and subcultured every 2 days to 3 days similar to the study of Abdelkhaliq et al.. For permeability experiments, cells were seeded at a density of 40,000 cells/cm^2 on a polycarbonate Transwell insert (area 0.6 cm^2, 0.4 μm pore size; Millipore) as follows: Caco-2 and HT29-MTX-E12 cells were seeded in a 3:1 ratio on the apical side of the Transwell system and allowed to attach for 24 h. After 24 h, cell culture medium was refreshed every 2–3 days and Transwell systems were used for permeability experiments following 21 days of culturing.
# (§2) HEPES is added because the experiments with the flow-through Transwell systems are performed outside of a CO2-controlled incubator, and for the sake of comparability, it is added to the static Transwell systems as well. […]
# [2] = system: monolayer of Caco-2/HT29-MTX cells; test: Permeability in dynamic flow-through Transwell system, offline analysis; settings: dynamic vs static, ergotamin(in)e 10 μg/mL
# Description: as §1, §2
# [3] = system: monolayer of Caco-2/HT29-MTX cells; test: Permeability in static Transwell system; settings: static experiments, ergotamin(in)e 10 μg/mL apical
# Description: as §1, §2
# [4] = system: Caco-2 and HT29-MTX-E12 cells (ratio 3:1)
# Description: With the WST-1 assay, mitochondrial activity of the cell is measured by the conversion of WST-1 into formazan dye by mitochondrial dehydrogenase enzymes. The assay is performed as follows: Caco-2 and HT29-MTX-E12 cells (ratio 3:1) were seeded in Greiner Bio-One (Alphen aan den Rijn, The Netherlands) flat-bottom 96-well plates at a concentration of 1 × 10^5 cells/mL in cell culture medium (100 μL/well). Plates were incubated for 24 h at 37 °C under 5% CO2. […] Then, the exposure medium containing (dilutions of) the compounds of interest was discarded and the cells were washed with pre-warmed HBSS. Subsequently, WST-1 reagent (in cell culture medium without phenol red) was added to the cells (1:10, 100 μL/well). After 1.5 h of incubation at 37 °C, the absorbance of each well was measured at 440 nm using a Bio-Tek (Winooski, VT, USA) Synergy HT Multi-Mode microplate reader.
# [5] = system: monolayer of Caco-2/HT29-MTX cells
# Description: as §1
# [6] = system: monolayer of Caco-2/HT29-MTX cells; test: Lucifer yellow cell barrier integrity test; assay type: in vitro ADME, human; settings: 500 μg/mL apical, 30 min, after permeability experiments (day 21); average
# Description: Barrier integrity was evaluated similar to the study of Hubatsch et al., and cells were cultured on a Transwell membrane for 21 days and subsequently stained for tight junction protein ZO-1 and the cell nuclei. For this, the cells were washed with PBS and fixed with 4% paraformaldehyde (w/v) for 15 min. Cells were permeabilized with 0.25% Triton X-100 (v/v) and blocked with 1% BSA (w/v). The cells were then incubated with the conjugated antibody ZO-1/TJP1-Alexa Fluor 594 for 45 min (10 μg/mL). Subsequently, DAPI was used to stain the nuclei for 10 min (5 μg/mL). Between incubations, cells were washed with PBS three times. Cells were mounted in a 120-μm spacer (Sigma-Aldrich) on a microscope slide (Thermo Scientific) with ProLong Diamond Antifade Mountant. Slides were then examined using a Zeiss (Jena, Germany) LSM 510 META confocal microscope. Samples were excited with 405-nm and 543-nm lasers, and the pinholes were in the range of 90–94 μm at a magnification of × 40. Cell layer integrity was also evaluated using the transport marker Lucifer yellow. […] Cell culture medium was collected from the apical and basolateral sides at t = 0 and t = 30 min and analysed for fluorescence at 458 nm/530 nm using a Bio-Tek Synergy HT Multi-Mode microplate reader. […]
molecule,measurement,setting,value
CN1C[C@H](C(=O)N[C@]2(C)O[C@@]3(O)[C@@H]4CCCN4C(=O)[C@H](Cc4ccccc4)N3C2=O)C=C2c3cccc4[nH]cc(c34)C[C@H]21 [ergotamine],"Papp at 180 min, 10 μg/mL",[1],8.6 ± 1.2 ×10⁻⁶ cm/s
CN1C[C@@H](C(=O)N[C@]2(C)O[C@@]3(O)[C@@H]4CCCN4C(=O)[C@H](Cc4ccccc4)N3C2=O)C=C2c3cccc4[nH]cc(c34)C[C@H]21 [ergotaminine],"permeability, times lower in the dynamic experiments compared to the static experiments",[2],5 times
same,apparent permeability coefficient,[3],50.2 ± 5.8 × 10^−6 cm/s
"CN1C2CCCC1CC(NC(=O)c1nn(C)c3ccccc13)C2 (centres unmarked) [granisetron, Granisetron]",non-toxic concentration,"[4]; human, 24 h",10 µg/mL
same,cell-induced product formation on the basolateral side,[5],no cell-induced products were detected
same,"translocated across the in vitro intestinal barrier, cumulative % of the apical concentration","[5]; human, 3 h",13.1%
Lucifer yellow,Lucifer yellow permeability (percentage of the apical concentration),[6],0.18% ± 0.06
Triton X-100,cell viability,"[4]; positive control, Triton X-100 0.25% v/v, percentage of negative control",0.4% ± 0.3
